# In patent publication US12611405B2, “Agent that increases the expression of the BCL2-associated agonist of cell death for the treatment of cancer” (LDN Pharma Limited, priority 2017, dated 2026):
# Assays:
# Type in all cases: cell-based
# [1] = system: BAD expression in HCT116 colon cancer cells; assay: Level of expression of BAD after 48 h culture, immunoblotting
# Method: In order to determine the effect of 6-β-naltrexol or naltrexone on the level of expression of BAD, pAKT, p21, cyclin B1 and CDK1 HCT116 colon cancer cells were seeded onto 6-well plates at a density of 2×10^5 cell/well, and allowed to adhere overnight. Cells were then cultured in the presence of naltrexone or 6-β-naltrexol at concentrations of 10 nM or 10 μM for a further 48 h. Cells were then harvested and processed for measurements of BAD, or pAKT, p21, cyclin B1 and CDK1 using standard immunoblotting techniques.
# [2] = system: HCT116 cells; assay: Two-phase priming with 6-β-naltrexol then GEM or OXP, cell number and viability by trypan blue counting
# Method: (§1) The impact of combining 6-β-naltrexol with other chemotherapy agents was tested by culturing cells according to a treatment schedule that involved two phases of treatment. The first phase involved priming with 10 nM 6-β-naltrexol or 10 μM 6-β-naltrexol for 48 h, before treatment with another drug for a further 48 h. A549 and HCT116 cells were seeded into 6-well plates at a density of 2×10^5 cells/well and left to adhere overnight. Media was removed after 48 h, and cells were rinsed gently with drug-free medium. Fresh culture medium that contained gemcitabine (GEM) or oxaliplatin (OXP) was then added to the cells. The concentrations of the chemotherapy agents used were approximately ¼ IC50, as established previously [Liu W M, Fowler D W, Smith P, Dalgleish A G. Pre-treatment with chemotherapy can enhance the antigenicity and immunogenicity of tumours by promoting adaptive immune responses. Br J Cancer. 2010 Jan. 5; 102(1):115-23. doi: 10.1038/sj.bjc.6605465.]. Cells were then left for a further 48 h before assessment of cell number of viability by cell counting using trypan blue dye as a way of discriminating live and dead cells. Cytostasis was indicated by a reduction in cell number and no associated reduction in cell viability.
# [3] = system: A549 cells; assay: as above
# Method: as §1
# [4] = system: BAD expression in breast cancer cell line MCF-7; assay: BAD protein expression by western blotting; details: MCF-7, different concentrations of 6BN (FIG. 3)
# [5] = system: MCF-7 cells; assay: 6BN given concomitantly with gemcitabine or oxaliplatin, cell number and viability by trypan blue dye exclusion; details: 10 uM 6BN concomitantly with gemcitabine (0.5 uM) or oxaliplatin (0.5 uM), 48 h
# Method: The effect of combining 6BN with the chemotherapeutic agents gemcitabine or oxaliplatin was tested by culturing MCF-7 cells with 6BN (10 nM or 10 uM) concomitantly with gemcitabine (0.5 uM) or oxaliplatin (0.5 uM). Cell number and viability was then assessed after 48 h using trypan blue dye exclusion as a means to discriminate live/dead cells.
# [6] = 6-β-naltrexol priming 48 h in an amount raising BAD by at least 10%, then GEM or OXP at approx. ¼ IC50 for 48 h
SMILES,effect on the level of expression of BAD ([1]; 10 nM),increase in the level of expression of BAD ([1]; 10 μM),"cytotoxicity of 6-β-naltrexol alone ([2]; 10 nM or 10 μM 6BN, no chemotherapeutic agent (FIG. 2d))","cytotoxic effect of both chemotherapeutic agents (GEM, OXP) after priming [2, 6]","cytotoxicity of 6-β-naltrexol alone ([3]; 10 nM or 10 μM 6BN, no chemotherapeutic agent (FIG. 2c))","cytotoxic effect of both chemotherapeutic agents (GEM, OXP) after priming [3, 6]",expression of the pro-apoptotic protein BAD [4],effect on cell viability of the combination with chemotherapy [5],effect on the level of expression of BAD ([1]; 10 μM)
"Oc1ccc2c3c1OC1[C@H](O)CC[C@@]4(O)[C@@H](C2)N(CC2CC2)CC[C@]314 (stereo partly drawn) [6-β-naltrexol, 17-(Cyclopropylmethyl)-4,5-epoxymorphinan-3,6 beta,14-triol]",negligible effect,more than 10%,absence of any independent increase in cytotoxicity,increased,absence of any independent increase in cytotoxicity,increased,dose dependent increase,greatest effect on cell viability,–
"O=C1CC[C@@]2(O)[C@H]3Cc4ccc(O)c5c4[C@@]2(CCN3CC2CC2)[C@H]1O5 [naltrexone, reference compound]",negligible effect,–,–,–,–,–,–,–,negligible effect
